Data reported in patent publication US5126367A, “Psychotropic benzodioxan derivatives” (American Home Products Corporation, priority 1991, dated 1992).

Assays:
[1] = target: T1, serotonin 5-HT1A receptor (Rattus norvegicus, UniProt P19327); experiment: 5-HT1A Binding: displacement of [3H] 8-OHDPAT
T1 construct: following the procedure of Hall et al., J. Neurochem; 44, 1685 (1985); from tissue; host or cells: brain tissue (from the cited method)
T1 sequence (P19327 1-422): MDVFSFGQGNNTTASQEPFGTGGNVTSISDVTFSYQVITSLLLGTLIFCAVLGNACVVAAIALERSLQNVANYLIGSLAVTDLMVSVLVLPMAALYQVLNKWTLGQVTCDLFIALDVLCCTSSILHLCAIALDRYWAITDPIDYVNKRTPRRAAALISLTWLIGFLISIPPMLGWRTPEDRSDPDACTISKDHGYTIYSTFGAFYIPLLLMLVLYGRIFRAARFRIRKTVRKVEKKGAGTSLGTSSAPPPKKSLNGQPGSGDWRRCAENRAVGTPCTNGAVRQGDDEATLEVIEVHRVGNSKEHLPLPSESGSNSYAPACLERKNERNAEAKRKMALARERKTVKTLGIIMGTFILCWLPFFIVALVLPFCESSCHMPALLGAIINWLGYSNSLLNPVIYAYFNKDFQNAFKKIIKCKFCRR
Description: High affinity for the serotonin 5-HT1A receptor was established by testing the claimed compound's ability to displace [^3 H] 8-OHDPAT (dipropylaminotetralin) from the 5-HT1A serotonin receptor following the procedure of Hall et al., J. Neurochem. 44, 1685 (1985). […] The anxiolytic activity of buspirone is believed to be, at least partially, due to its 5-HT1A receptor affinity (Vander Maclen et al., Eur. J. Pharmacol. 1986, 129 (1-2) 133-130).

[2] = target: T2, dopamine D-2 receptor (Rattus norvegicus, UniProt P61169); experiment: D-2 Binding: displacement of 3H-spiroperidol in homogenized limbic brain tissue
T2 construct: from tissue; host or cells: homogenized limbic brain tissue
Procedure: High affinity for the dopamine D2 receptor was established by the standard experimental test procedure of Fields, et al., Brain Res., 136, 578 (1977) and Yamamura et al., eds., Neurotransmitter Receptor Binding, Raven Press, New York (1978) wherein homogenized limbic brain tissue is incubated with ^3 H-spiroperidol and various concentrations of test compound, filtered and washed and shaken with Hydrofluor scintillation cocktail (National Diagnostics) and counted in a Packard 460 CD scintillation counter.

[3] = system: 5-HT1A receptor; conditions: cited from earlier work
[4] = system: serotonin syndrome (5-HT1A); experiment: Antagonism of 5-HT1A agonist-induced (5-MeODMT or 8-OH-DPAT) serotonin syndrome; format: in vivo, male Sprague-Dawley CD rats; conditions: for ED50: Rattus norvegicus, rats
Procedure: (§1) Certain of the compounds of this invention were also compared to buspirone in their ability to either produce or antagonize the serotonin syndrome according to the procedure of Smith and Peroutka, Pharmacol. Biochem. Behav. 24: 1513-1519, 1986, in which 250-350 g male Sprague-Dawley CD rats (Charles River) are given either test compound or vehicle and placed individually into plexiglass observation cages. Agonist activity of the compound is determined by scoring for the presence of the serotonin syndrome (forepaw treading, head weaving, tremor, hindlimb abduction, flattened body posture, and Straub tail) during the first 15 minutes after compound administration. Antagonist activity is then determined by a challenge with either of the 5-HT1A agonists 5-methoxy-N,N-dimethyltryptamine (5-MeODMT) or 8-hydroxydipropylaminotetralin.

[5] = system: serotonin syndrome (5-HT1A); experiment: Production of the serotonin syndrome (agonist activity); format: in vivo, male Sprague-Dawley CD rats; conditions: for ED50: Rattus norvegicus, 0.25 h, first 15 minutes after compound administration, read-out: ED50 for producing the serotonin syndrome
Procedure: as §1

[6] = target: T1, serotonin 5-HT1A receptor; conditions: buspirone, standard for anxiolytic activity; cited from earlier work

T2 sequence (P61169 whole entry): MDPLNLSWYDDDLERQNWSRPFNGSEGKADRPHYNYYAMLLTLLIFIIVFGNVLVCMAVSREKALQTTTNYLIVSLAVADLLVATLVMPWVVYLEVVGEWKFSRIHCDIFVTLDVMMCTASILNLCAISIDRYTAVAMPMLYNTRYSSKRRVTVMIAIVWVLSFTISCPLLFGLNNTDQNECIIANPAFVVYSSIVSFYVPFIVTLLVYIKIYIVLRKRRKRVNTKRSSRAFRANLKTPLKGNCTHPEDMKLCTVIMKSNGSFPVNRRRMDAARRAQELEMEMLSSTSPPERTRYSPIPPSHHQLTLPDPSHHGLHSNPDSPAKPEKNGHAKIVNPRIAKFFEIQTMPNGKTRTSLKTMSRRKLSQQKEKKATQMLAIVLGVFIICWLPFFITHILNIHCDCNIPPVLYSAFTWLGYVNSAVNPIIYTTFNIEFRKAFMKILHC

| SMILES | inhibition at 0.1 µM [1] [%] | inhibition at 1 µM [2] [%] | further results |
| --- | --- | --- | --- |
| CC1(C)[C@H]2CC[C@]1(CS(=O)(=O)NCCNCC1COc3ccccc3O1)C(=O)C2 (single isomer, unassigned) [Example 8] | 90 | 49 | IC50 ([1]; 5-HT1A binding): 9 nM |
| O=C1CC2(CCCC2)CC(=O)N1CCCCNCC1COc2ccccc2O1 (single isomer, unassigned; (-)) [(-)-MDL 72832] | – | – | binding relative to the dextrorotary isomer at the 5-HT1A receptor site ([3]; (-)-isomer vs dextrorotary isomer): 32 times |
| O=C1CC2(CCCC2)CC(=O)N1CCCCNCC1COc2ccccc2O1 (stereo not drawn) [MDL 72832, 8-[4-(1,4-benzodioxan-2-ylmethylamino)butyl]-8-azaspiro[4.5]decane-7,9-dione] | – | – | 5-HT1A ligand character (in words) [3]: selective and stereospecific |
| O=C1CC2(CCCC2)CC(=O)N1CCCCN1CCN(c2ncccn2)CC1 [buspirone, reference compound] | – | – | ED50 ([4]; challenge with 5-MeODMT, read-out: ED50 for antagonizing 5-MeODMT-induced syndrome): 4.6 mg/kg; ED50 ([5]; rats): 7.3 mg/kg; characterization as agonist/antagonist in the serotonin syndrome test ([5]; buspirone: from ED50s for production and antagonism): partial agonist; affinity for the 5-HT1A serotonin receptor subtype (in words) [6]: potent affinity |
| O=C(NCCNCC1COc2ccccc2O1)C12CC3CC(CC1C3)C2 (stereo not drawn) [Example 7, N-[2-[[(2,3-Dihydro-1,4-benzodioxin-2-yl)methyl]amino]ethyl]hexahydro-2,5-methanopentalene-3a(1H)-carboxamide] | 98 | 81 | – |
| O=C(OCCNCC1COc2ccccc2O1)C12CC3CC(CC(C3)C1)C2 (stereo not drawn) [Example 2, Tricyclo[3,3,1,1(3,7)]decane-1-carboxylic acid 2-[[(2,3-dihydro-1,4-benzodioxin-2-yl)methyl]amino]ethyl ester] | 100 | 91 | – |

Now from value to compound, other results behind:

| inhibition at 0.1 µM [1] [%] | inhibition at 1 µM [2] [%] | SMILES | further results |
| --- | --- | --- | --- |
| 100 | 83 | O=C(NCCNCC1COc2ccccc2O1)C12CC3CC(CC(C3)C1)C2 (stereo not drawn) [Example 1, N-[2-[[(2,3-Dihydro-1,4-benzodioxin-2-yl)methyl]amino]ethyl]tricyclo[3,3,1,1(3,7)]-decane-1-carboxamide] | – |
| 97 | 34 | CC1(C)C2CCC1(C(=O)NCCNCC1COc3ccccc3O1)C(=O)C2 (single isomer, unassigned; (+)) [Example 5, (+)-N-[2-[[(2,3-Dihydro-1,4-benzodioxin-2-yl)methyl]amino]ethyl]-7,7-dimethyl-2-oxobicyclo[2,2,1]heptane-1-carboxamide] | ED50 ([4]; challenge with 8-OH-DPAT, read-out: ED50 for antagonizing 8-OH-DPAT induced syndrome): 4.7 mg/kg; EC50 ([1]; 5-HT1A binding, given as EC50): 3 nM; ED50 ([5]; rats): 3.8 mg/kg |
| 88 | 34 | CC1(C)C2CCC1(C(=O)NCCNCC1COc3ccccc3O1)C(=O)C2 (single isomer, unassigned; (-)) [Example 6] | characterization as agonist/antagonist in the serotonin syndrome test ([5]; single dose of 20 mg/kg): partial agonist |
| 95 | 55 | O=C(NCCNCC1COc2ccccc2O1)NC12CC3CC(CC1C3)C2 (stereo not drawn) [Example 4, N-[2-[(2,3-Dihydro-1,4-benzodioxin-2-yl)methyl]aminoethyl-N'-hexahydro-2,5-methanopentalen-3a(1H)-yl]urea] | – |
| 98 | 27 | O=C(NCCNCC1COc2ccccc2O1)NC12CC3CC(CC(C3)C1)C2 (stereo not drawn) [Example 3, N-[2-[(2,3-Dihydro-1,4-benzodioxin-2-yl)methylamino]ethyl]-N'-tricyclo[3,3,1,1(3,7)]dec-1-ylurea] | ability to antagonize the serotonin syndrome ([4]; 1.0, 3.3, 10.0, and 33.0 mg/kg): mimicked buspirone's ability to antagonize the serotonin syndrome; IC50 ([1]; 5-HT1A binding): 5 nM; production of the serotonin syndrome on its own ([5]; compound alone, rats): did not produce the syndrome on its own |
